Laboratory results taken from the NIST ThermoML archive (doi:10.1016/j.jct.2009.10.007).
Numbers after ± are expanded uncertainties.

Columns and labels:
[1] = mn = molality of the nth substance listed, in mol/kg; conditions: 101 kPa, Liquid; for mass density: Vibrating tube method; for speed of sound: Sing-around technique in a fixed-path interferometer
[2] = refractive index (Na D-line) (dimensionless); mn = molality of the nth substance listed, in mol/kg; conditions: 308.15 K, 101 kPa, Liquid, Standard Abbe refractometry

CCCCn1cc[n+](C)c1.[Br-] [1-butyl-3-methylimidazolium bromide] + O
[1]
Conditions | mass density, 298.15 K [kg/m3] | mass density, 303.15 K [kg/m3] | mass density, 308.15 K [kg/m3] | speed of sound, 303.15 K [m/s] | speed of sound, 308.15 K [m/s]
m1 = 0.0183 | – | 996.538 ± 0.06 | 994.913 ± 0.061 | 1511 ± 0.76 | 1521.5 ± 0.76
m1 = 0.0274 | – | 996.983 ± 0.061 | 995.351 ± 0.061 | 1511.8 ± 0.76 | 1522.2 ± 0.76
m1 = 0.0367 | – | 997.432 ± 0.061 | 995.796 ± 0.061 | 1512.6 ± 0.76 | 1523 ± 0.76
m1 = 0.0459 | – | 997.878 ± 0.061 | 996.238 ± 0.061 | 1513.4 ± 0.76 | 1523.7 ± 0.76
m1 = 0.0692 | – | 999.002 ± 0.06 | 997.347 ± 0.061 | 1515.5 ± 0.76 | 1525.6 ± 0.77
m1 = 0.0932 | – | 1000.15 ± 0.06 | 998.48 ± 0.06 | 1517.5 ± 0.76 | 1527.4 ± 0.77
m1 = 0.1164 | – | 1001.24 ± 0.061 | 999.565 ± 0.06 | 1519.5 ± 0.77 | 1529.3 ± 0.77
m1 = 0.141 | 1003.88 ± 0.061 | 1002.4 ± 0.061 | 1000.71 ± 0.06 | 1521.7 ± 0.77 | 1531.2 ± 0.77
m1 = 0.1652 | 1005.02 ± 0.062 | 1003.53 ± 0.061 | 1001.83 ± 0.061 | 1523.7 ± 0.77 | 1533.1 ± 0.77
m1 = 0.1863 | 1006.01 ± 0.062 | 1004.51 ± 0.062 | 1002.79 ± 0.061 | 1525.5 ± 0.77 | 1534.7 ± 0.78
m1 = 0.2114 | 1007.19 ± 0.063 | 1005.67 ± 0.062 | 1003.94 ± 0.062 | 1527.6 ± 0.78 | 1536.6 ± 0.78
m1 = 0.2376 | 1008.4 ± 0.063 | 1006.87 ± 0.063 | 1005.13 ± 0.062 | 1529.7 ± 0.78 | 1538.5 ± 0.78
m1 = 0.2632 | 1009.58 ± 0.064 | 1008.03 ± 0.063 | 1006.28 ± 0.063 | 1531.8 ± 0.78 | 1540.4 ± 0.79
m1 = 0.2831 | 1010.49 ± 0.062 | 1008.93 ± 0.062 | 1007.17 ± 0.063 | 1533.4 ± 0.78 | 1541.8 ± 0.79

[2]
Conditions | refractive index
m1 = 0.0096 | 1.3326 ± 0.0005
m1 = 0.02 | 1.3343 ± 0.0005
m1 = 0.0298 | 1.3358 ± 0.0005
m1 = 0.0348 | 1.3366 ± 0.0005
m1 = 0.0398 | 1.3375 ± 0.0005
m1 = 0.05 | 1.339 ± 0.0005
m1 = 0.0548 | 1.3397 ± 0.0005
m1 = 0.0598 | 1.3405 ± 0.0005
m1 = 0.0689 | 1.3419 ± 0.0005
m1 = 0.082 | 1.3439 ± 0.0005
m1 = 0.0854 | 1.3444 ± 0.0005
m1 = 0.0896 | 1.3451 ± 0.0005
m1 = 0.1 | 1.3466 ± 0.0005
m1 = 0.1192 | 1.3497 ± 0.0005
